Measurements as given in article PMC6348443 (Journal of Medicinal Chemistry, 2018).
Where a name gives a salt, the structure may show the parent alone.

Columns and labels:
[1] = molecular target: T1, MOR (Rattus norvegicus, UniProt P33535); assay: competition radioligand binding, rat brain membranes, [3H]DAMGO; details: for Ki: rat brain membranes, read-out: opioid receptor binding Ki MOR
T1 construct: Membranes were prepared from Sprague-Dawley rat brains or guinea-pig brains according to the described procedures; tissue Labortierkunde und Laborgenetik, Medizinische Universität Wien; host or cells: Sprague-Dawley rat brain without cerebella
Procedure: (§1) Competition binding assays using rat brain (MOR and DOR) and guinea-pig brain (KOR) membranes (Table 1) were performed according to published procedures.[44],[49] […] In addition, we have assessed binding at the human opioid receptors stably transfected in Chinese hamster ovary (CHO) cells (Table S1).
(§2) Membranes were prepared from Sprague-Dawley rat brains or guinea-pig brains according to the described procedures.[44],[45] Brains without cerebella were homogenized on ice in 5 vol/wt of ice-cold 50 mM Tris-HCl buffer (pH 7.4) and diluted in 30 vol/wt of the same buffer. After centrifugation at 40 000g for 20 min at 4 °C, the pellets were resuspended in 30 vol/wt of 50 mM Tris-HCl buffer (pH 7.4) and incubated at 37 °C for 30 min. The centrifugation step described above was repeated, and the final pellets were resuspended in 5 vol/wt of 50 mM Tris-HCl buffer (pH 7.4) containing 0.32 M sucrose and stored at −80 °C until use.
(§3) Rat brain membranes were incubated with either [^3H]DAMGO (1 nM, 45 min, 35 °C) or [^3H][Ile^5,6]deltorphin II (0.5 nM, 45 min, 35 °C) for labeling MOR or DOR receptors, respectively. Guinea-pig brain membranes were incubated with [^3H]U69,593 (1 nM, 30 min, 30 °C) for labeling KOR. Binding assays with CHO cell membranes were conducted at 25 °C for 60 min using [^3H]DAMGO (1 nM) or [^3H]diprenorphine (0.2 nM) for labeling MOR or DOR, respectively. Nonspecific binding was determined using 10 μM naloxone (rodent brain) or 1–10 μM of the unlabeled counterpart of each radioligand (CHO cells). Reactions were terminated by rapid filtration through Whatman glass fiber GF/C filters. Filters were washed three times with 5 mL of ice-cold 50 mM Tris-HCl buffer (pH 7.4) using a Brandel M24R cell harvester (Gaithersburg, MD). Radioactivity retained on the filters was counted by liquid scintillation counting using a Beckman Coulter LS6500 (Beckman Coulter Inc., Fullerton, CA). All binding experiments were performed in duplicate and repeated at least three times.
(§4) Data were analyzed and graphically processed using the GraphPad Prism 5.0 Software (GraphPad Prism Software Inc., San Diego, CA). For in vitro assays, inhibition constant (Ki in nM), potency (EC50 in nM), and efficacy (% stimulation) values were determined from concentration–response curves by nonlinear regression analysis. The Ki values were determined by the method of Cheng and Prusoff.[66] In the [^35S]GTPγS binding assays, efficacy was determined relative to the reference full opioid agonists, DAMGO (MOR), DPDPE (DOR), and U69,593 (KOR). In vitro data are presented as mean ± SEM of three to four independent experiments each performed in duplicate. […] Each experimental group included six to seven mice. Data were statistically evaluated using one-way ANOVA with Tukey’s post hoc test for multiple comparisons with significance set at P < 0.05.

[2] = molecular target: T2, DOR (Rattus norvegicus, UniProt P33533); assay: competition radioligand binding, rat brain membranes, [3H][Ile5,6]deltorphin II; details: rat brain membranes; read-out: opioid receptor binding Ki DOR
T2 construct: Membranes were prepared from Sprague-Dawley rat brains or guinea-pig brains according to the described procedures; tissue Labortierkunde und Laborgenetik, Medizinische Universität Wien; host or cells: Sprague-Dawley rat brain without cerebella
Procedure: as §1, §2, §3, §4

[3] = molecular target: T3, KOR (Cavia porcellus, UniProt P41144); assay: competition radioligand binding, guinea-pig brain membranes, [3H]U69,593; details: guinea-pig brain membranes; read-out: opioid receptor binding Ki KOR
T3 construct: Membranes were prepared from Sprague-Dawley rat brains or guinea-pig brains according to the described procedures; tissue Labortierkunde und Laborgenetik, Medizinische Universität Wien; host or cells: guinea-pig brain without cerebella
Procedure: as §1, §2, §3, §4

[4] = molecular target: T4, MOR (Homo sapiens, UniProt P35372); assay: [35S]GTPγS binding assay, CHO-hMOR membranes; format: biochemical; details: for EC50: [35S]GTPγS, CHO human MOR membranes, read-out: MOR EC50; for functional profile at MOR (full/partial agonist): full agonist ≥85% of the response to DAMGO; for Emax: relative to reference full agonist DAMGO, read-out: MOR % stim.
T4 construct: host or cells: CHO (CHO-hMOR)
Procedure: (§5) Efficacies are presented as percentage stimulation relative to the standard full agonists, [D-Ala^2,N-Me-Phe4,Gly-ol^5]enkephalin (DAMGO for MOR),[53] [D-Pen^2,D-Pen^5]enkephalin (DPDPE for DOR)[54] and N-methyl-2-phenyl-N-[(5R,7S,8S)-7-(pyrrolidin-1-yl)-1-oxaspiro[4.5]dec-8-yl]acetamide (U69,593 for KOR).[55]
(§6) Membranes from CHO cells expressing human opioid receptors were prepared in 50 mM Tris-HCl buffer (pH 7.7) according to a previously described procedure.[64] Cells expressing human opioid receptors grown at confluence were removed from the culture plates by scraping, homogenized in 50 mM Tris buffer (pH 7.7), using a Polytron homogenizer, then centrifuged once and washed by an additional centrifugation at 27 000g for 15 min, at 4 °C. The final pellet was resuspended in Tris buffer and stored at −80 °C until use. Protein content of brain and cell membrane preparation homogenates was determined by the method of Bradford using bovine serum albumin as the standard.[65]
(§7) Binding of [^35S]GTPγS to membranes from CHO cells stably expressing the human opioid receptors was conducted according to the published procedures.[49],[64] Cell membranes (5–10 μg) in 20 mM HEPES, 10 mM MgCl2, and 100 mM NaCl (pH 7.4) were incubated with 0.05 nM [^35S]GTPγS, 10 μM GDP, and various concentrations of test compound in a final volume of 1 mL, for 60 min at 25 °C. Nonspecific binding was determined using 10 μM GTPγS, and the basal binding was determined in the absence of test ligand. Samples are filtered over glass Whatman glass GF/B fiber filters and counted as described for binding assays. All experiments were performed in duplicate and repeated at least three times.
as §4

[5] = molecular target: T5, DOR (Homo sapiens, UniProt P41143); assay: [35S]GTPγS binding assay, CHO-hDOR membranes; format: biochemical; details: for EC50: [35S]GTPγS, CHO human DOR membranes; for Emax: relative to reference full agonist DPDPE, read-out: DOR % stim.
T5 construct: host or cells: CHO (CHO-hDOR)
Procedure: as §5, §6, §7, §4

[6] = molecular target: T6, KOR (Homo sapiens, UniProt P41145); assay: [35S]GTPγS binding assay, CHO-hKOR membranes; format: biochemical; details: for EC50: [35S]GTPγS, CHO human KOR membranes, read-out: KOR EC50; for Emax: relative to reference full agonist U69,593, read-out: KOR % stim.
T6 construct: host or cells: CHO (CHO-hKOR)
Procedure: as §5, §6, §7, §4

[7] = system: male CD1 mice; assay: acetic acid-induced writhing assay after sc administration; format: in vivo, mouse; details: for ED50: Mus musculus, 0.5 h, read-out: ED50 (95% CI), mice, sc, inhibition of writhing 30 min after drug administration
Procedure: Solutions of test compounds were prepared in sterile physiological 0.9% saline and further diluted to working doses in saline solution. Test compounds or saline (control) were administered by sc route in a volume of 10 μL/1 g of body weight. All doses are expressed in terms of salts. Separate groups of mice received the respective dose of compound, and individual mice were only used once for behavioral testing.
Writhing was induced in male CD1 mice by ip injection of a 0.6% acetic acid aqueous solution as described previously.[48],[62] Groups of mice were administered sc different doses of test compound or saline (control), and 5 min prior to testing (25 min after drug or saline), each animal received an ip injection of acetic acid solution. Each mouse was placed in individual transparent Plexiglas chambers, and the number of writhes was counted during a 10 min observation period. […] For the antagonism study, naloxone methiodide was sc co-administered with the respective opioid agonist, and writhing was assessed as described above.
as §4

Structure (SMILES)	Ki [1]	Ki [2]	Ki [3]	EC50 [4]	functional profile at MOR (full/partial agonist) [4]	Emax [4]	increased agonist potency at DOR vs MOR ([5]; [35S]GTPγS EC50)	EC50 [5]	Emax [5]	EC50 [6]	functional profile at KOR (full/partial agonist) ([6]; partial agonist <85% of the response to U69,593)	Emax [6]	ED50 [7]	Ki ratio MOR/DOR/KOR ([1]; from Ki in rat (MOR, DOR) and guinea-pig (KOR) brain membranes)	ED50 (95% CI) ([7]; mice, inhibition of writhing 30 min after drug administration)
CO[C@@]12CC[C@@H](N[C@H](C(=O)O)C(C)C)[C@@H]3Oc4c(O)ccc5c4[C@@]31CCN(C)[C@@H]2C5 [Compound 7b, (2S)-2-[(4,5α-Epoxy-3-hydroxy-14β-methoxy-17-methylmorphinan-6β-yl)amino]-3-methylbutyric Acid Dihydrochloride]	3.04 ± 0.12 nM	3.52 ± 0.04 nM	305 ± 39 nM	11.7 ± 5.7 nM	partial agonist	~80%	2–4 times	5.73 ± 2.48 nM	96 ± 9%	1120 ± 411 nM	partial agonist	68 ± 10%	0.117 mg/kg	–	–
CO[C@@]12CC[C@H](N[C@@H](CC(=O)O)C(=O)O)[C@@H]3Oc4c(O)ccc5c4[C@@]31CCN(C)[C@@H]2C5 [Compound 13a, (2S)-2-[(4,5α-Epoxy-3-hydroxy-14β-methoxy-17-methylmorphinan-6α-yl)-amino]butanedioic Acid Dihydrochloride]	1.36 ± 0.05 nM	14.6 ± 3.6 nM	50.2 ± 9.2 nM	4.1 ± 1.29 nM	–	90 ± 7%	–	10.1 ± 3.8 nM	97 ± 3%	2990 ± 659 nM	–	83 ± 17%	0.0382 mg/kg	1/11/37	–
CO[C@@]12CC[C@H](N[C@@H](Cc3ccc(O)cc3)C(=O)O)[C@@H]3Oc4c(O)ccc5c4[C@@]31CCN(C)[C@@H]2C5.Cl.Cl [Compound 9a, (2S)-2-[(4,5α-Epoxy-3-hydroxy-14β-methoxy-17-methylmorphinan-6α-yl)amino]-3-(4-hydroxyphenyl)propionic Acid Dihydrochloride]	0.83 ± 0.04 nM	2.18 ± 0.98 nM	39.5 ± 0.2 nM	1.87 ± 0.44 nM	–	92 ± 2%	–	1.76 ± 0.22 nM	88 ± 6%	100 ± 6 nM	–	62 ± 8%	< 0.02 mg/kg	–	14.6 (5.15–41.7) μg/kg
CO[C@@]12CC[C@@H](N[C@@H](CC(=O)O)C(=O)O)[C@@H]3Oc4c(O)ccc5c4[C@@]31CCN(C)[C@@H]2C5 [Compound 13b, (2S)-2-[(4,5α-Epoxy-3-hydroxy-14β-methoxy-17-methylmorphinan-6β-yl)amino]butanedioic Acid Dihydrochloride]	3.42 ± 0.05 nM	22.6 ± 2.2 nM	351 ± 43 nM	1.45 ± 0.01 nM	partial agonists	~70%	–	11.8 ± 2.2 nM	101 ± 1%	753 ± 358 nM	–	49 ± 7%	–	–	–
